According to the NIST ThermoML archive (doi:10.1016/j.jct.2016.09.028):

Test: xn = mol fraction of the nth substance listed
Conditions: 100 kPa, Liquid; for speed of sound: Frequency=3 MHz, Sing-around technique in a fixed-path interferometer; for mass density: Vibrating tube method

Nc1ccccc1 [aniline] + CCn1cc[n+](C)c1.F[B-](F)(F)F
Conditions	mass density, 293.15 K [kg/m3]	mass density, 303.15 K [kg/m3]	mass density, 313.15 K [kg/m3]	mass density, 323.15 K [kg/m3]	speed of sound, 293.15 K [m/s]	speed of sound, 303.15 K [m/s]	speed of sound, 313.15 K [m/s]	speed of sound, 323.15 K [m/s]
x2 = 0	1021.69	1013.04	1004.36	995.66	1656.8	1618.3	1580	1541.9
x2 = 0.1008	1068.09	1059.52	1050.95	1042.39	1673.6	1634.2	1596.5	1561.8
x2 = 0.2035	1112.92	1104.8	1096.69	1088.57	1684.8	1650.6	1616.2	1583
x2 = 0.3059	1153.03	1144.58	1136.13	1127.68	1689.8	1657.2	1625.5	1593
x2 = 0.4053	1183.5	1175.21	1166.91	1158.62	1688.9	1658.9	1628.7	1596.8
x2 = 0.5073	1208.33	1200.1	1191.87	1183.64	1684.6	1654.5	1624.2	1593.2
x2 = 0.6013	1227.06	1219.01	1210.96	1202.91	1673.9	1646.2	1617.6	1589.3
x2 = 0.7046	1244.52	1236.64	1228.76	1220.88	1660.6	1634.7	1608.8	1582.3
x2 = 0.8067	1260.47	1252.74	1245.01	1237.28	1648.4	1623.8	1599.4	1575.4
x2 = 0.9059	1272.26	1264.62	1256.98	1249.34	1638.8	1614.2	1591.8	1568.9
